Experimental data from patent US20230265151A1, “GIP/GLP1 CO-AGONIST COMPOUNDS” (priority 2020, published 2023).
Where two headings read alike, the source gives them in different places.

Columns and labels:
hGCGR = target: T1, hGCGR (Homo sapiens, UniProt P47871); assay: Functional cAMP formation (HTRF) in HEK-293 clonal cells expressing hGCGR, 0.1% bovine casein, without or with 1.0% human serum albumin; format: cell-based; conditions: hGCGR EC50, nM (SEM, n), cAMP, 37° C.
T1 construct: expressed in transfected cells
T1 sequence (P47871 26-477): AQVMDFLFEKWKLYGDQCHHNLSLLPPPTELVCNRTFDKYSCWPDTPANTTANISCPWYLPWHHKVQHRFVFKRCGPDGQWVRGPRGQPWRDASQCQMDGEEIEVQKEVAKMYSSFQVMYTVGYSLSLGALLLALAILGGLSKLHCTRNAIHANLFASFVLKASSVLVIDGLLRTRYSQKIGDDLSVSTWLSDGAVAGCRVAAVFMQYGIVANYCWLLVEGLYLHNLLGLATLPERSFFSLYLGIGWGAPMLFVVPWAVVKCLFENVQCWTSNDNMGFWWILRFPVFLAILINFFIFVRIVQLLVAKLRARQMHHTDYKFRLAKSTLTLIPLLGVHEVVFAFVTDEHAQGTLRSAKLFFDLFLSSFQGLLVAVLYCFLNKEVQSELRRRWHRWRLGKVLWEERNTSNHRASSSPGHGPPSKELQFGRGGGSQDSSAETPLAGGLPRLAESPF
Method in brief: (§1)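 Cells were stimulated with peptide for 30 min at 37° C, then lysed in buffer carrying cAMP-d2 and anti-cAMP Eu3+-cryptate for a competitive HTRF read after at least 60 min at room temperature. The 665/620 nm ratio was converted to nM cAMP against a standard curve.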

[1] = target: T2, human GLP-1 receptor (hGLP-1R) (Homo sapiens, UniProt P43220); assay: [125I]-GLP-1 binding, SPA with membranes of HEK293 cells expressing hGLP-1R
T2 construct: expressed in transfected cells; crude membranes
T2 sequence (P43220 24-463): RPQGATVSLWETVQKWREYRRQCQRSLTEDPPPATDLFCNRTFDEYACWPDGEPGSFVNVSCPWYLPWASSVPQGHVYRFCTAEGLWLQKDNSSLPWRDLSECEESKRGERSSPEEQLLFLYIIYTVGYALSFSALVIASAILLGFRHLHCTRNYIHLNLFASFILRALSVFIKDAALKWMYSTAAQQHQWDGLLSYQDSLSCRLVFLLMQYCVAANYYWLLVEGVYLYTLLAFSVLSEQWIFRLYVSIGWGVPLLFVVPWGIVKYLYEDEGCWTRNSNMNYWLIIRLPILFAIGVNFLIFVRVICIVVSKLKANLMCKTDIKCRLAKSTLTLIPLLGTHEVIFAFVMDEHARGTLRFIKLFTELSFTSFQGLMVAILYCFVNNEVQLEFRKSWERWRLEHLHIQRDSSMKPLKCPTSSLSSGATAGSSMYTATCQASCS

hGIPR = target: T3, hGIPR (Homo sapiens, UniProt P48546); assay: Functional cAMP formation (HTRF) in HEK-293 clonal cells expressing hGIPR, 0.1% bovine casein, without or with 1.0% human serum albumin; format: cell-based; conditions: for Emax: percent of maximal response to GIP(1-42)NH2; for EC50: hGIPR EC50, nM (SEM, n), cAMP, 37° C.
T3 construct: expressed in transfected cells
T3 sequence (P48546 22-466): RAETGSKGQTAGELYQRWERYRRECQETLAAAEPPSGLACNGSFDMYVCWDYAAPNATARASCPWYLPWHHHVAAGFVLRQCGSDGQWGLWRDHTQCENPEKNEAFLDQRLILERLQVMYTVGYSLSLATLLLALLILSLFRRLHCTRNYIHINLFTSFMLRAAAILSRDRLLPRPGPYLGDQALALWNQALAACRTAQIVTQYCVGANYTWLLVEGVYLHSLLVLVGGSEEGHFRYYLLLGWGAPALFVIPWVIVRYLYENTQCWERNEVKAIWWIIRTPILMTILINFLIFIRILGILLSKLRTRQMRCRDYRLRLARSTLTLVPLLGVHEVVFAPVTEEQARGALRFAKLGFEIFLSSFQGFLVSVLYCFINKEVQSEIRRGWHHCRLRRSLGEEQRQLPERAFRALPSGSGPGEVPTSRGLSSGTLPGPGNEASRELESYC
Method in brief: as §1

hGLP-1R = hGLP-1R (Homo sapiens, UniProt P43220); assay: Functional cAMP formation (HTRF) in HEK-293 clonal cells expressing hGLP-1R, 0.1% bovine casein, without or with 1.0% human serum albumin; format: cell-based; design: expressed in transfected cells
Sequence of hGLP-1R (P43220 24-463): as the sequence (P43220 24-463) above
Method in brief: as §1

[2] = 0.1% bovine casein (no human serum albumin), geometric mean
[3] = 0.1% bovine casein and 1.0% human serum albumin, geometric mean (SEM, n)

Molecule `CC[C@H](C)[C@H](NC(=O)[C@H](CC(C)C)NC(=O)[C@](C)(Cc1ccc(O)cc1)NC(=O)[C@H](CCCCNC(=O)COCCOCCNC(=O)COCCOCCNC(=O)CC[C@H](NC(=O)CCCCCCCCCOc1ccc(C(=O)O)cc1)C(=O)O)NC(=O)[C@@H](NC(=O)[C@H](Cc1ccccc1)NC(=O)[C@H](Cc1ccncc1)NC(=O)C(C)(C)NC(=O)[C@H](CCC(N)=O)NC(=O)[C@H](C)NC(=O)[C@H](CCC(N)=O)NC(=O)[C@H](CCCN)NC(=O)[C@H](CC(=O)O)NC(=O)[C@H](CC(C)C)NC(=O)[C@](C)(CC(C)C)NC(=O)[C@@H](NC(=O)C(C)(C)NC(=O)[C@H](Cc1ccncc1)NC(=O)[C@H](CC(=O)O)NC(=O)[C@H](CO)NC(=O)[C@@H](NC(=O)[C@](C)(Cc1ccccc1F)NC(=O)[C@@H](NC(=O)CNC(=O)[C@H](CCC(=O)O)NC(=O)C(C)(C)NC(=O)[C@@H](N)Cc1ccc(O)cc1)[C@@H](C)O)[C@@H](C)O)[C@@H](C)CC)[C@@H](C)CC)C(=O)N[C@@H](CCCCNC(=O)COCCOCCNC(=O)COCCOCCNC(=O)CC[C@H](NC(=O)CCCCCCCCCOc1ccc(C(=O)O)cc1)C(=O)O)C(=O)NCC(=O)NCC(=O)N1CCC[C@H]1C(=O)N[C@@H](CO)C(=O)N[C@@H](CO)C(=O)NCC(=O)N[C@@H](C)C(=O)N1CCC[C@H]1C(=O)N1CCC[C@H]1C(=O)N1CCC[C@H]1C(=O)N[C@@H](CO)C(N)=O` [Example 493] has an EC50 (hGCGR; [2]) of over 9950 nM, an EC50 (hGCGR; [3]) of over 9950 nM and a Ki [1] of 0.25 nM. The Emax (hGIPR; HEK293, read-out: hGIPR Emax, % ± SEM, cAMP, 37° C., 0.1% bovine casein and 1.0% human serum albumin) was 94.6%, the Emax (hGIPR; HEK293, read-out: hGIPR Emax, % ± SEM, cAMP, 37° C., 0.1% bovine casein, arithmetic mean) was 105% and the EC50 (hGIPR; [2]) was 0.0155 nM. For the same molecule, the EC50 (hGIPR; [3]) was 0.591 nM, the Emax (hGLP-1R; HEK293, read-out: hGLP-1R Emax, % ± SEM, cAMP, 37° C., 0.1% bovine casein, percent of maximal response to GLP-1(7-36)NH2, arithmetic mean) was 126% and the EC50 (hGLP-1R; hGLP-1R EC50, nM (SEM, n), cAMP, 37° C., 0.1% bovine casein (no human serum albumin), geometric mean) was 0.184 nM.
